Measured values taken from patent publication US4578489A (priority 1982, dated 1986).
Read-outs that look alike come from different tables or passages of the source.

Key:
Format in all cases: cell-based
[1] = tested on: Aspergillus niger; assay: Minimum inhibitory concentration against fungi, agar incorporation test, strain K; conditions: malt extract/agar
Description: (§1) The invention is carried out using the known agar incorporation test in the following fungi:
(§2) in a malt extract/agar (Merck). Inhibition is effected by adding sufficient of each of the various compounds to give final concentrations in the agar of 2, 5, 10, 50 and 100 mg/liter. The concentrations (mg/liters) required to inhibit the growth of the fungi (starting from traces of fungi added dropwise) are illustrated in Table 3.

[2] = tested on: Candida albicans; assay: Minimum inhibitory concentration against fungi, agar incorporation test, strain P; conditions: malt extract/agar
Description: as §1, §2

[3] = tested on: Chlorella vulgaris; assay: Action against algae: Chlorella vulgaris; parameters: key: --: no growth on the agar, 3 ppm have destroyed the algae in 6 hours; conditions: 3 mg/liter; for Growth on the agar (algae-destroying action): 6 hours exposure, 14 days incubation; for Growth in the medium (growth inhibition): 14 days
Description: Cultures of Chlorella vulgaris which had been grown for 14 days in algae nutrient media are diluted in the ratio 1/200 in the algae nutrient medium. Each of the compounds listed in Table 1 is then added in such an amount as to give a final concentration of 3 mg/liter. After incubating for 6 hours, 10 μl of each culture are withdrawn and added dropwise to algae/agar in order to determine the destructive action. After the cultures have incubated for 14 days under illumination (14 hours of light and 10 hours of darkness, alternately), the growth in the algae medium (determination of growth inhibition) and on the algae/agar (determination of algae-destroying action) is assessed visually.

[4] = tested on: Chaetomium globosum; assay: Minimum inhibitory concentration against fungi, agar incorporation test, strain S; conditions: malt extract/agar
Description: as §1, §2

[5] = tested on: Alternaria alternata; assay: Minimum inhibitory concentration against fungi, agar incorporation test, strain N; conditions: malt extract/agar
Description: as §1, §2

[6] = tested on: Bacillus subtilis; assay: Minimum inhibitory concentration against bacteria, strain F; conditions: 24 hours at 30° C.; tested at 100 and 300 mg/liter
Description: (§3) Overnight cultures, grown in Caso peptone bouillon (Merck) of the various strains of bacteria: (A) Proteus vulgaris, (B) Pseudomonas aeruginosa, (C) Enterobacter aerogenes, (D) Serratia marcencens, (E) Alcaligenes denitrificans and (F) Bacillus subtilis are each diluted in a ratio of 1/1000 in saline solution. Sufficient of the suspensions is put into Caso peptone bouillon to dilute the bacteria again in the ratio of 1/1000. Each of the compounds listed in Table 1 is then added in amounts of 100 and 300 mg/liter. After being incubated for 24 hours at 30° C. in a shaking waterbath, the turbidity of the samples is evaluated.

[7] = tested on: Pseudomonas aeruginosa; assay: Minimum inhibitory concentration against bacteria, strain B; conditions: 24 hours at 30° C.; tested at 100 and 300 mg/liter
Description: as §3

[8] = tested on: Serratia marcencens; assay: Minimum inhibitory concentration against bacteria, strain D; conditions: 24 hours at 30° C.; tested at 100 and 300 mg/liter
Description: as §3

[9] = tested on: Endomyces geotrichum; assay: Minimum inhibitory concentration against fungi, agar incorporation test, strain Q; conditions: malt extract/agar
Description: as §1, §2

[10] = tested on: Penicillium funiculosum; assay: Minimum inhibitory concentration against fungi, agar incorporation test, strain M; conditions: malt extract/agar
Description: as §1
(M) Penicillium funiculosum
as §2

[11] = tested on: Proteus vulgaris; assay: Minimum inhibitory concentration against bacteria, strain A; conditions: 24 hours at 30° C.; tested at 100 and 300 mg/liter
Description: as §3

[12] = tested on: Alcaligenes denitrificans; assay: Minimum inhibitory concentration against bacteria, strain E; conditions: 24 hours at 30° C.; tested at 100 and 300 mg/liter
Description: as §3

[13] = tested on: Enterobacter aerogenes; assay: Minimum inhibitory concentration against bacteria, strain C; conditions: 24 hours at 30° C.; tested at 100 and 300 mg/liter
Description: as §3

[14] = tested on: Aureobasidium pullulans; assay: Minimum inhibitory concentration against fungi, agar incorporation test, strain R; conditions: malt extract/agar
Description: as §1
(R) Aureobasidium pullulans
as §2

[15] = tested on: Aspergillus phoenicis; assay: Minimum inhibitory concentration against fungi, agar incorporation test, strain L; conditions: malt extract/agar
Description: as §1
(L) Aspergillus phoenicis
as §2

[16] = tested on: Cladosporium cladosporioides; assay: Minimum inhibitory concentration against fungi, agar incorporation test, strain O; conditions: malt extract/agar
Description: as §1
(O) Cladosporium cladosporioides
as §2

[17] = tested on: mixed culture of bacteria; parameters: key: +: growth, no destruction; (+): growth less than that of control (>10 colonies), slight destruction; (-): slight growth (1-10 colonies); -: no growth, destruction

Row | Molecule | MIC against fungi, strain K [1] [µg/mL] | MIC against fungi, strain P [2] [µg/mL] | Growth on the agar (algae-destroying action) [3] | Growth in the medium (growth inhibition) [3] | MIC against fungi, strain S [4] [µg/mL] | MIC against fungi, strain N [5] [µg/mL] | MIC against bacteria, strain F [6] [µg/mL] | MIC against bacteria, strain B [7] [µg/mL] | MIC against bacteria, strain D [8] [µg/mL] | MIC against fungi, strain Q [9] [µg/mL] | MIC against fungi, strain M [10] [µg/mL] | MIC against bacteria, strain A [11] [µg/mL] | MIC against bacteria, strain E [12] [µg/mL] | MIC against bacteria, strain C [13] [µg/mL] | MIC against fungi, strain R [14] [µg/mL] | MIC against fungi, strain L [15] [µg/mL] | MIC against fungi, strain O [16] [µg/mL] | also measured
1 | CCCCCCCCCCCC[N+](C)(C)C.CCC[CH2][Sn-]([Cl])([Cl])([CH2]CCC)[CH2]CCC [Example 16, (CH3)3 NC12 H25 / Tributyldichloro] | 2 | 5 | -- | -- | 2 | 2 | 100 | 100 | 100 | 50 | 5 | 100 | 100 | 100 | 2 | 2 | 2 | 
2 | (CH3)2 N(OH)C16 H37 / Tributyldichloro [Example 15] | 2 | 5 | -- | -- | 2 | 2 | 100 | 100 | > 300 | 10 | 5 | 100 | 300 | > 300 | 2 | 2 | 2 | 
3 | CCC[CH2][Sn-]([Cl])([Cl])([CH2]CCC)[CH2]CCC.CCC[CH2][Sn-]([Cl])([Cl])([CH2]CCC)[CH2]CCC.C[N+](C)(C)CCCCCC[N+](C)(C)C [Example 23, (CH3)3 N(CH2)6 N(CH3)3 / Tributyldichloro] | 10 | ≤ 5 | -- | -- | ≤ 5 | ≤ 5 | 100 | 100 | > 300 | 10 | 10 | 100 | 300 | 300 | ≤ 5 | 10 | ≤ 5 | 
4 | CCCCCCCCCCCCCCCCCC[N+](C)(C)C.CCC[CH2][Sn-]([Cl])([Cl])([CH2]CCC)[CH2]CCC [Example 18, (CH3)3 NC18 H37 / Tributyldichloro] | 2 | 5 | -- | -- | 2 | 2 |  |  |  | 10 | 5 |  |  |  | 2 | 2 | 2 | Growth (destruction of a mixed culture of bacteria) ([17]; 5 mg/l, culture diluted 1/1000 in Tyrode): +; Growth (destruction of a mixed culture of bacteria) ([17]; 5 mg/l, culture diluted 1/10000 in Tyrode): (+) (growth less than that of control (>10 colonies), slight destruction); Growth (destruction of a mixed culture of bacteria) ([17]; 10 mg/l, culture diluted 1/1000 in Tyrode): +; Growth (destruction of a mixed culture of bacteria) ([17]; 10 mg/l, culture diluted 1/10000 in Tyrode): (-) (slight growth (1-10 colonies)); Growth (destruction of a mixed culture of bacteria) ([17]; 30 mg/l, culture diluted 1/1000 in Tyrode): (+) (growth less than that of control (>10 colonies), slight destruction); Growth (destruction of a mixed culture of bacteria) ([17]; 30 mg/l, culture diluted 1/10000 in Tyrode): -; Growth (destruction of a mixed culture of bacteria) ([17]; 60 mg/l, culture diluted 1/1000 in Tyrode): (+) (growth less than that of control (>10 colonies), slight destruction); Growth (destruction of a mixed culture of bacteria) ([17]; 60 mg/l, culture diluted 1/10000 in Tyrode): -; Growth (destruction of a mixed culture of bacteria) ([17]; 100 mg/l, culture diluted 1/1000 in Tyrode): (-) (slight growth (1-10 colonies)); Growth (destruction of a mixed culture of bacteria) ([17]; 100 mg/l, culture diluted 1/10000 in Tyrode): -
